The results in this text go back to patent US20100273656A1, “COMPOSITION AND METHOD FOR SELECTIVE HERBICIDE” (priority 2002, published 2010).

For one data set, the system named is grass. The data set can be described thus: Example 1 field test of iron chelates, grass damage. Type of data set: in vivo. Particulars: in vivo. The protocol: (§1) The following non-limiting examples serve to further describe the invention. Unless otherwise specified, all of the iron solutions were made using the same molar concentration of iron ion as chelating agent. All of the outside tests were done on areas of mixed grass and dandelions that were at least 2 months old. For the greenhouse tests, dandelions were grown in a commercial greenhouse mix, using supplemental lighting and heating. Each plant was grown in a 2¼ inch pot to a minimum diameter of 20 cm. All of the solutions were sprayed onto the plants at a rate of 100 ml/m^2. The ferrous sulfate formulations that were used in examples 1, 2, 8 and 9 contained 1% iron (180 mM), 18 mM EDTA, 1% citric acid and 0.5% urea. In all of the examples, the amount of iron is identified in brackets as the percent iron on a weight basis.
(§2) All plant damage was assessed using a qualitative rating scale from 0 to 9.
All of the iron chelates were sprayed once at 0.2% Fe^+3 (35.8 mM), at a volume of 100 ml/m^2 onto 0.5 m^2 areas of mixed grass and dandelions. The spraying of the test was followed by 2 days of rain-free weather. Observations were made 5 days after spraying.

Data set [1] has as its system dandelions. Kind of data set: Example 4 effect of pH on FeHEDTA, greenhouse dandelions. Particulars: for Dead (#/10): 8 + 5 days after spraying. The data set is classed as in vivo, Taraxacum officinale. The method, then:
as §1, §2
This test compared the effects of FeHEDTA at a range of pH values to potted, greenhouse-grown dandelions. All of the solutions were applied at 0.2% Fe^+3 (35.8 mM). Ammonium sulfate was added at 2%. The plants were re-sprayed after 8 days.

In data set [2] the test system is dandelions. The data set can be described thus: Example 6 various Fe chelates, dandelion phytotoxicity. Type of data set: in vivo, Taraxacum officinale. The method, then:
as §1, §2
This test compared EDG (ethanol diglycine) and EDDS at 0.4% Fe+3 (71.6 mM), with HEDTA 0.2% Fe+3 (35.8 mM). FeEDDS and FeEDG were made with 100% excess chelating agent. FeHEDTA was made with 10% excess chelating agent. The solutions were sprayed onto greenhouse grown dandelions. The plants were resprayed after 7 days.

Another data set relates to dandelion. Kind of data set: Example 21 Fe chelates with Killex, dandelion. Type of data set: in vivo, Taraxacum officinale. Particulars: A29 = 29 days after treatment. The protocol:
Plants were fertilized with an all purpose water-soluble fertilizer mix of 20-20-20 (N-P-K; Plant-Prod®) as needed. All broadleaf weeds were grown individually in a 2¼-inch pot until they were a suitable size for herbicide tests (actual weed size is reported in examples below). Perennial ryegrass was also grown in 2¼-inch pots, however many grass seeds were sown in the pot to simulate a small section of turf. Grass plants were continually trimmed to a height of 4 cm, simulating that of a homeowner's lawn. For field tests, plots ¼ m^2 in size were marked out in areas containing the targeted broadleaf weed species growing in turf grass. Plots were continually mowed to simulate a homeowner's lawn. […] In all of the examples, the amounts of the various herbicide components are identified as a percent on a weight basis.
Killex® (Scotts Canada, Ltd., Ontario, Canada) is a commonly used selective lawn herbicide and was used as the commercial herbicide for herbicide combinations. The labeled dilution and application rates for Killex® are 6 ml into 1 L of solution (0.6%) applied at 200 ml/m^2.
All visual plant damage assessments were made using a quantitative rating scale; percent control relative to the untreated check (0=no effect; 100=plant death).
Materials and Methods: This trial was conducted in the greenhouse. […] Phytotoxicity (%) was assessed 29 days after treatment (A29).

On to `O=C([O-])CN(CCO)CCN(CC(=O)[O-])CC(=O)[O-].[Fe+3]` [FeHEDTA], for which, in the data set with grass, the “Grass Damage (0 to 9)” value worked out at 0. Also, the “Plant Damage (0 to 9)” value in the data set on dandelions [1] (8 + 5 days after spraying (re-sprayed after 8 days), listed as FeHEDTA pH 3 (0.2% Fe)) was 6.8 0 to 9; in the data set with dandelions [1] (8 + 5 days after spraying (re-sprayed after 8 days), listed as FeHEDTA pH 5 (0.2% Fe)), 5.4 0 to 9; in the data set with dandelions [1] (8 + 5 days after spraying (re-sprayed after 8 days), listed as FeHEDTA pH 7 (0.2% Fe)) it was 5.1 0 to 9; in the data set on dandelions [1] (8 + 5 days after spraying (re-sprayed after 8 days), listed as FeHEDTA pH 9 (0.2% Fe)), 3.6 0 to 9; in the data set on dandelions [1] (8 + 5 days after spraying (re-sprayed after 8 days), listed as FeHEDTA pH 11 (0.2% Fe)), 6.6 0 to 9; with dandelions [1] (7 days after spraying, listed as FeHEDTA pH 3 (0.2% Fe)), 3.2 0 to 9. Further, the “Plant Damage (0 to 9)” value is reported as 2.6 0 to 9 in the data set with dandelions [1] (7 days after spraying, listed as FeHEDTA pH 5 (0.2% Fe)); 1.9 0 to 9 with dandelions [1] (7 days after spraying, listed as FeHEDTA pH 7 (0.2% Fe)); 2.0 0 to 9 in the data set with dandelions [1] (7 days after spraying, listed as FeHEDTA pH 9 (0.2% Fe)); 3.8 0 to 9 in the data set with dandelions [1] (7 days after spraying, listed as FeHEDTA pH 11 (0.2% Fe)); 8.1 0 to 9 with dandelions [2] (7 + 5 days after spraying (resprayed after 7 days)); 1.3 0 to 9 with dandelions [2] (7 days after spraying). For the same compound, the “Dead (#/10)” value is recorded as 5 #/10 in the data set on dandelions [1] (listed as FeHEDTA pH 3 (0.2% Fe)); 3 #/10 in the data set on dandelions [1] (listed as FeHEDTA pH 5 (0.2% Fe)); 2 #/10 in the data set with dandelions [1] (listed as FeHEDTA pH 7 (0.2% Fe)); 1 #/10 with dandelions [1] (listed as FeHEDTA pH 9 (0.2% Fe)); 5 #/10 in the data set with dandelions [1] (listed as FeHEDTA pH 11 (0.2% Fe)). The “Dead Plants (#/10)” value in the data set with dandelions [2] (7 + 5 days after spraying) was 3 #/10. Also, the “Phytotoxicity (%) against dandelion” value with dandelion stood at 24%.
